Here are results for 13 compounds from article PMC9641905, “Synthesis, biological evaluation and molecular docking of new triphenylamine-linked pyridine, thiazole and pyrazole analogues as anticancer agents” (BMC Chemistry, 2022).

By IC50 is commonly meant the point on the concentration scale where inhibition reaches its midpoint. By CC50 is commonly meant the concentration that lowers cell viability or growth by half. One may read the melting point as the temperature, or range, at which the solid turns liquid.

One data set deals with A-549 cell line. Briefly: MTT cytotoxicity assay, A-549 lung cancer cell line. Conditions: lung cancer cells. Type of data set: cell-based, human. The procedure: (§1) The lung cancer A-549 and the breast cancer MDA-MB-231 cell lines were obtained from the viscera Tissue Culture Unit. The cells were spread in Dulbecco’s modified Eagle’s medium (DMEM) supplemented with 10% heat-inactivated fetal bovine serum, 1% L-glutamine, HEPES buffer, and 50 µg/mL gentamycin. All cells were maintained at 37 °C in a humidified atmosphere with 5% CO2 and were sub-cultured two times a week.
(§2) The MTT assay was applied to determine the cytotoxicity of pyridine and thiazole derivatives. MTT or 3-(4,5-dimethylthiazol-2-yl)-2,5-diphenyltetrazolium bromide was purchased from Serva, Germany. The cell lines were introduced into 96-well plates at a cell concentration of 1 × 10^4 cells per well in 100 μL of complete medium (tests were done in duplicates). These plates were incubated for 24 h, 5% CO2, at 37 °C for settle down and adhesion. Control cells were incubated without the test sample and with or without DMSO. After incubation, different concentrations of samples were added after the period of incubation (48 h), media were inhaled, and the MTT solution was added to all wells for full 30 min. Briefly, the media was extracted from the 96 well plates and exchanged with 100 µl of fresh culture RPMI 1640 medium without phenol red then 10 µl of the 12 mM MTT stock solution (5 mg of MTT in 1 mL of PBS) to all wells inclusive the untreated controls. The 96 well plates were incubated at 37 °C and 5% CO2 for 4 h. An 85 µl aliquot of the media was taken away from the wells, added 50 µl of DMSO to all wells and mixed thoroughly, and incubated at 37 °C for 10 min. The absorbance of plates was measured after shaking on a microplate reader (TECAN, Inc.), using a test wavelength of 590 nm. Measure the optical density by the microplate reader to calculate the number of viable cells and the percentage of viability according to [(ODt/ODc)] × 100% where ODt (optical density of cells treated) with the tested sample and ODc (optical density of control cells).
(§3) In the vitro cytotoxic activity of triphenylamine-based pyridine, thiazole, pyrazole and/or isoxazole derivatives was estimated against two cell lines as lung cancer (A-549) and mammary gland breast cancer cell line (MDA-MB-231) by using MTT assay according to reported method. Cisplatin is one of the common alkylation agents was selected to be the reference drug. From graphic plots of the dose response curve determine the 50% inhibitory concentration (IC50) (Fig. 2).
A general note: Tetrazolium assays rely on reduction of a dye to a coloured formazan, in cell work by metabolically active cells.

The nature of data set [1]: MTT cytotoxicity assay against normal cells (MRC-5). The data set is classed as cell-based. Conditions: MRC-5 cells (normal lung fibroblasts), normal human lung fibroblasts, read-out: CC50 MRC-5 cell line. The procedure: as §2
(§4) The MTT assay was applied to determine the cytotoxicity of pyridine and thiazole derivatives against normal cell line to explore the selectivity of the tested compounds against tumor cells. The cytotoxicity was tested against human lung fibroblast noncancerous cell line (MRC-5).

In a further data set the test system is MDA-MB-231 cell line. Briefly: MTT cytotoxicity assay, MDA-MB-231 breast cancer cell line. The data set is classed as cell-based, human. Conditions: breast cancer cells. The procedure: as §1, §2, §3
Data set [2] has as its system human lung fibroblast noncancerous cell line (MRC-5). Put plainly: MTT cytotoxicity assay against normal cells (MRC-5). Conditions: normal human lung fibroblasts. The data set is classed as cell-based. The procedure: as §2, §4

For `CN(C)c1ccc(-n2c(N)c(C#N)c(-c3ccc(N(c4ccccc4)c4ccccc4)cc3)c(C#N)c2=O)cc1` [4d, 6-Amino-1-(4-(dimethylamino)phenyl)-4-(4-(diphenylamino)phenyl)-2-oxo-1,2-dihydropyridine-3,5-dicarbonitrile], the IC50 with A-549 cell line (Homo sapiens, A549, 48 h) amounted to 233 nM. For the same compound, the CC50 at 48 h in data set [1] is 1100 nM.
With `Cc1ccc(-n2c(N)c(C#N)c(-c3ccc(N(c4ccccc4)c4ccccc4)cc3)c(C#N)c2=O)cc1` [4b, 6-Amino-4-(4-(diphenylamino)phenyl)-2-oxo-1-(p-tolyl)-1,2-dihydropyridine-3,5-dicarbonitrile], the IC50 in the data set on A-549 cell line (Homo sapiens, A549, 48 h) is 8.03 nM; in the data set with MDA-MB-231 cell line (Homo sapiens, MDA-MB-231, 48 h), 10.3 nM. The CC50 at 48 h in data set [1] came to 97.1 nM.
Take `CN(C)c1ccc(NC(=O)C(C#N)=c2sc(=O)c(=Cc3ccc(N(c4ccccc4)c4ccccc4)cc3)n2-c2ccccc2)cc1` [6b, 2-Cyano-N-(4-(dimethylamino)phenyl)-2-(4-(4-(diphenylamino)benzylidene)-5-oxo-3-phenylthiazolidin-2-ylidene)acetamide]: the IC50 in the data set on A-549 cell line (Homo sapiens, A549, 48 h) is 79.2 nM; in the data set on MDA-MB-231 cell line (Homo sapiens, MDA-MB-231, 48 h), 123 nM. Also, the CC50 at 48 h in data set [1] amounted to 768 nM.
`Cc1ccc(NC(=O)C(C#N)=c2sc(=O)c(=Cc3ccc(N(c4ccccc4)c4ccccc4)cc3)n2-c2ccccc2)cc1` [6c, 2-Cyano-2-(4-(4-(diphenylamino)benzylidene)-5-oxo-3-phenylthiazolidin-2-ylidene)-N-(p-tolyl)acetamide]: the IC50 is 48.5 nM in the data set on A-549 cell line (Homo sapiens, A549, 48 h) and 51 nM in the data set on MDA-MB-231 cell line (Homo sapiens, MDA-MB-231, 48 h). For the same compound, the CC50 at 48 h in data set [1] worked out at 143 nM.
The matching figures for `COc1ccc(NC(=O)C(C#N)=c2sc(=O)c(=Cc3ccc(N(c4ccccc4)c4ccccc4)cc3)n2-c2ccccc2)cc1` [6d, 2-Cyano-2-(4-(4-(diphenylamino)benzylidene)-5-oxo-3-phenylthiazolidin-2-ylidene)-N-(4-methoxyphenyl)acetamide]: 95.4 nM, 139 nM and 683 nM.
Take `CCOC(=O)C=c1sc(=Cc2ccc(N(c3ccccc3)c3ccccc3)cc2)c(=O)n1-c1ccccc1` [compound 8, ethyl-2-(5-(4-(diphenylamino)benzylidene)-4-oxo-3-phenylthiazolidin-2-ylidene)acetate]: the melting point lay in the range of 250 to 252 °C. This compound showed an IC50 in the data set with A-549 cell line (Homo sapiens, A549, 48 h) of 219 nM. In the data set on MDA-MB-231 cell line (Homo sapiens, MDA-MB-231, 48 h), this compound displayed an IC50 of 136 nM. Further, the CC50 at 48 h in data set [1] turned out to be 1100 nM.
For the compound `CCN(CC)c1ccc(NC(=O)C(C#N)=c2sc(=O)c(=Cc3ccc(N(c4ccccc4)c4ccccc4)cc3)n2-c2ccccc2)cc1` [6a, 2-Cyano-N-(4-(diethylamino)phenyl)-2-(4-(4-(diphenylamino)benzylidene)-5-oxo-3-phenylthiazolidin-2-ylidene)acetamide], the IC50 in the data set on A-549 cell line (Homo sapiens, A549, 48 h) was 141 nM; in the data set with MDA-MB-231 cell line (Homo sapiens, MDA-MB-231, 48 h) it was 172 nM. The CC50 at 48 h in data set [1] was found to be 985 nM.
The matching figures for `N#Cc1c(-c2ccc(N(c3ccccc3)c3ccccc3)cc2)c(C#N)c(=O)n(-c2ccccc2)c1N` [4a, 6-Amino-4-(4-(diphenylamino)phenyl)-2-oxo-1-phenyl-1,2-dihydropyridine-3,5-dicarbonitrile]: 46.9 nM, 55 nM and 137 nM.
`O=C1ON=C(c2ccccc2)C1=Cc1ccc(N(c2ccccc2)c2ccccc2)cc1` [compound 10, 4-(4-(Diphenylamino)benzylidene)-3-phenylisoxazol-5(4H)-one] returned a melting point of 218 to 220 °C. In the data set on A-549 cell line (Homo sapiens, A549, 48 h), this compound yielded an IC50 of 128 nM. The compound further showed an IC50 with MDA-MB-231 cell line (Homo sapiens, MDA-MB-231, 48 h) of 111 nM. Moreover, the CC50 at 48 h in data set [1] was 973 nM.
For the compound `N#Cc1c(-c2ccc(N(c3ccccc3)c3ccccc3)cc2)c(C#N)c(=O)n(-c2ccc([N+](=O)[O-])cc2)c1N` [4e, 6-Amino-4-(4-(diphenylamino)phenyl)-1-(4-nitrophenyl)-2-oxo-1,2-dihydropyridine-3,5-dicarbonitrile], the IC50 in the data set with A-549 cell line (Homo sapiens, A549, 48 h) was determined as 9.5 nM; in the data set with MDA-MB-231 cell line (Homo sapiens, MDA-MB-231, 48 h) it was 14.7 nM. Further, the CC50 at 48 h in data set [1] stood at 82.3 nM.
`CC1=NN(c2ccccc2)C(=O)C1=Cc1ccc(N(c2ccccc2)c2ccccc2)cc1` [compound 9, 4-(4-(Diphenylamino)benzylidene)-5-methyl-2-phenyl-2,4-dihydro-3H-pyrazol-3-one] gave a melting point of 182 to 184 °C. In addition, in the data set on A-549 cell line (Homo sapiens, A549, 48 h), the midpoint of inhibition, the IC50, lay at 127 nM. For the same compound, in the data set with MDA-MB-231 cell line (Homo sapiens, MDA-MB-231, 48 h), the IC50 was 268 nM. In data set [1], the CC50 at 48 h was found to be 1300 nM.
On to “6-Amino-1-(p-anisyl)-4-(4-(diphenylamino)phenyl)-2-oxo-1,2-dihydropyridine-3,5-dicarbonitrile [4c]”, for which the IC50 amounted to 154 nM in the data set on A-549 cell line (48 h) and 193 nM in the data set on MDA-MB-231 cell line (48 h). In addition, in data set [2], it took 864 nM to reach half-maximal cytotoxicity (CC50).
In the case of `N.N.[Cl][Pt][Cl]` [Cisplatin, reference compound], the IC50 in the data set on A-549 cell line (48 h) is 24.4 nM; in the data set with MDA-MB-231 cell line (48 h), 12 nM.
